Values of other authors, collected in patent publication US9693981B2 (INTEC PHARMA LTD., priority 2008, dated 2017).

How the values were obtained:
[1] = high-fat/heavy meal compared to the fasted state, healthy adults
[2] = according to the USP 30

In the case of CCN(C(C)=O)c1cccc(-c2ccnc3c(C#N)cnn23)c1 [Zaleplon], the AUC [1] is listed as “not significantly affected”, the “delay of Tmax” value [1] is listed as “approximately 2 hours” and the “reduction of Cmax” value [1] is listed as “approximately 35%”. For the same compound, the solubility [2] was “very slightly soluble”.
